Results reported in patent US20250034216A1, “STEREOSELECTIVE COVALENT LIGANDS FOR ONCOGENIC AND IMMUNOLOGICAL PROTEINS” (The Scripps Research Institute, priority 2021, published 2025).

How the values were obtained:
Assay in all cases: IA-DTB cysteine engagement
Format in all cases: binding
PTGR1_C239 = target: T1, PTGR1_C239 (Homo sapiens, UniProt Q14914); conditions: 22Rv1 cells, relative to DMSO; for % engagement PTGR1_239: 5 μM probe, 1 h (FIG. 5B); for % engagement PTGR1_C239: 20 μM probe, 1 h
T1 construct: endogenous in cells; host or cells: 22Rv1
T1 sequence (Q14914 whole entry): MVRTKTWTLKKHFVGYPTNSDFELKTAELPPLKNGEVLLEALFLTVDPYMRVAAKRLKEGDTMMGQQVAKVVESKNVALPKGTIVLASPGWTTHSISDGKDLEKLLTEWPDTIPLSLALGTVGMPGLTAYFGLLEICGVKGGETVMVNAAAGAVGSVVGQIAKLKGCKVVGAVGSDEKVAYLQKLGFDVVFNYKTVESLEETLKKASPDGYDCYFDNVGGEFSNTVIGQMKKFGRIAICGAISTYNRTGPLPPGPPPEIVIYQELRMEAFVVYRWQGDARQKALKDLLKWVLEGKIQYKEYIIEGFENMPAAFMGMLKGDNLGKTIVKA
Method in brief: (§1)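 First, cells are exposed to electrophilic probes in situ. Next, lysates are labeled with IA-DTB (1 h, ambient temperature), reduced, alkylated and trypsin-digested. Then, IA-DTB peptides are enriched on streptavidin, TMT-labeled and analyzed, with ratios taken against DMSO channels.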

LAPTM4A_C20 = target: T2, LAPTM4A_C20 (Homo sapiens, UniProt Q15012); conditions: 22Rv1 cells, 20 μM probe, 1 h, relative to DMSO
T2 construct: endogenous in cells; host or cells: 22Rv1
Method in brief: as §1

TMEM50A_C13 = target: T3, TMEM50A_C13 (Homo sapiens, UniProt O95807); conditions: 22Rv1 cells, 20 μM probe, 1 h, relative to DMSO
T3 construct: endogenous in cells; host or cells: 22Rv1
T3 sequence (O95807 whole entry): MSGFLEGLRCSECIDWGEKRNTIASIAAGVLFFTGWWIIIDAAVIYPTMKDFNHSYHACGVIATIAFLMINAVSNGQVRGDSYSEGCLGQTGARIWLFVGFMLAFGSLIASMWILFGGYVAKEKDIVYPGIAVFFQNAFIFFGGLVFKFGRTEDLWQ
Method in brief: as §1

ABCB8_C454 = target: T4, ABCB8_C454 (Homo sapiens, UniProt Q9NUT2); conditions: 22Rv1 cells, 20 μM probe, 1 h, relative to DMSO
T4 construct: endogenous in cells; host or cells: 22Rv1
T4 sequence (Q9NUT2 26-735): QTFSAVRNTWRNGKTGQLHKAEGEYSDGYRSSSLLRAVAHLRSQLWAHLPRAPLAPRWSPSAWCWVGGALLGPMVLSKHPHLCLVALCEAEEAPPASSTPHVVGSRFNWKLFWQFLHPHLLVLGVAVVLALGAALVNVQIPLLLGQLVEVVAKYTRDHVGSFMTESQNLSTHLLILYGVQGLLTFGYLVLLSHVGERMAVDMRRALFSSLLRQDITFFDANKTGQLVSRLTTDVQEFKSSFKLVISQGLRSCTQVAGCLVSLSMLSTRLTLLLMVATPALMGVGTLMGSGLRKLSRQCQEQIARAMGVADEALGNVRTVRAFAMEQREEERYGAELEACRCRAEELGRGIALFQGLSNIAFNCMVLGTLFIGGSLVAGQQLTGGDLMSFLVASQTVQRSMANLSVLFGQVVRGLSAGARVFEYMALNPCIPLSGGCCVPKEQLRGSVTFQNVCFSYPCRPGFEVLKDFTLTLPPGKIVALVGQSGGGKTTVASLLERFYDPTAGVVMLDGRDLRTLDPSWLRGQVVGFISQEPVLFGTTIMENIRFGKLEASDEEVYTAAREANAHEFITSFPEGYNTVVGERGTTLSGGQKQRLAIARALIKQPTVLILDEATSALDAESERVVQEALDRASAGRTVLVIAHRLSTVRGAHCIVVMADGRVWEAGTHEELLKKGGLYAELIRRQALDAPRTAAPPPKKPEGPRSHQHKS
Method in brief: as §1

| SMILES | % engagement PTGR1_239 (PTGR1_C239) | % engagement LAPTM4A_C20 (LAPTM4A_C20) | % engagement TMEM50A_C13 (TMEM50A_C13) | % engagement ABCB8_C454 (ABCB8_C454) | % engagement PTGR1_C239 (PTGR1_C239) |
| --- | --- | --- | --- | --- | --- |
| CC#CC(=O)N1C[C@H](c2ccc(Br)cc2)[C@@H]1C(=O)Nc1cccc2cccnc12 [MY-45B, (2R,3S)-3-(4-bromophenyl)-1-(but-2-ynoyl)-N-(quinolin-8-yl)azetidine-2-carboxamide] | −4.50% | – | – | – | – |
| C=CC(=O)N1C[C@H](c2ccc(Br)cc2)[C@H]1C(=O)Nc1cccc2cccnc12 [MY-3A, (2S,3S)-1-acryloyl-3-(4-bromophenyl)-N-(quinolin-8-yl)azetidine-2-carboxamide] | – | 49.5% | 60.5% | 24% | −4% |

The next lines start with the values.

| % engagement PTGR1_239 (PTGR1_C239) | % engagement LAPTM4A_C20 (LAPTM4A_C20) | % engagement TMEM50A_C13 (TMEM50A_C13) | % engagement ABCB8_C454 (ABCB8_C454) | % engagement PTGR1_C239 (PTGR1_C239) | SMILES |
| --- | --- | --- | --- | --- | --- |
| 81.33% | 55% | 58% | 14% | 79% | C=CC(=O)N1C[C@H](c2ccc(Br)cc2)[C@@H]1C(=O)Nc1cccc2cccnc12 [MY-1B, (2R,3S)-1-acryloyl-3-(4-bromophenyl)-N-(quinolin-8-yl)azetidine-2-carboxamide] |
| – | 70.5% | 68.5% | 67% | −16.5% | C=CC(=O)N1C[C@H](c2ccc(Br)cc2)[C@H]1C(=O)Nc1cccc2cccnc12 [MY-3B, (2S,3S)-1-acryloyl-3-(4-bromophenyl)-N-(quinolin-8-yl)azetidine-2-carboxamide] |
| – | 69% | 63.5% | −1.25% | 75% | C=CC(=O)N1C[C@@H](c2ccc(Br)cc2)[C@H]1C(=O)Nc1cccc2cccnc12 [MY-1A, (2S,3R)-1-acryloyl-3-(4-bromophenyl)-N-(quinolin-8-yl)azetidine-2-carboxamide] |
